Measurements reported in patent US20230132982A1, “USE OF PYRIDO[1,2-A]PYRIMIDINONE COMPOUND IN TREATING LYMPHOMA” (priority 2020, published 2023).

Columns and labels:
Type in all cases: in vivo, human
[1] = tested on: relapsed or refractory FL; experiment: Clinical trial in relapsed or refractory follicular lymphoma (Example 4)
Description: (§1) Method of administration: orally administered once daily, 20 mg each time, with 28 consecutive days of administration as one cycle. Drug: tablet of the compound of formula I, 5 mg or 20 mg. […] The efficacy was evaluated according to the revised evaluation criteria of the Lugano conference, 2014 edition. Primary evaluation indexes of efficacy: objective response rate (ORR), i.e., (CR+PR cases)/total cases, including cases of complete response (CR) and partial response (PR). Secondary evaluation indexes of efficacy: progression-free survival (PFS), overall survival (OS), disease control rate (DCR) and duration of response (DOR).

[2] = tested on: relapsed/refractory diffuse large B-cell lymphoma (DLBCL); experiment: Clinical trial in relapsed/refractory diffuse large B-cell lymphoma (Example 5); settings: 20 mg orally once daily, 21-day cycle
Description: as §1, with “21” for “28”

[3] = tested on: relapsed/refractory mantle cell lymphoma; experiment: Clinical trial in relapsed/refractory mantle cell lymphoma (Example 3)
Description: as §1

[4] = tested on: Chronic lymphocytic leukemia/small lymphocytic lymphoma; experiment: Clinical trial in small lymphocytic lymphoma or chronic lymphocytic leukemia (Example 6); settings: 20 mg orally once daily, 28-day cycle
Description: as §1, with “evaluated with reference” for “evaluated according”, “to IWCLL2008” for “to the revised”, “criteria and the evaluation criteria revised by” for “criteria of”

[5] = tested on: relapsed or refractory lymphoma; experiment: Clinical trial of tablets of the compound of formula I in relapsed or refractory lymphoma (Example 2); set-up: key to Best efficacy: “Small SD” means that at the time of efficacy evaluation, a lesion shrinks in size compared with a baseline level, but does not meet the criteria for PR
Description: Drug: tablet of the compound of formula I, 1 mg or 5 mg. 2.2 Enrollment Criteria • 1) Unambiguously diagnosed as relapsed or refractory lymphoma by pathology and/or cytology; • 2) Has at least one measurable target lesion other than brain lesions confirmed by imaging in screening phase (evaluated according to the evaluation criteria revised by the Lugano conference, 2014 edition); • 3) Aged 18-75 years; • 4) ECOG (PS) score ≤1; • 5) Expected survival time ≥3 months; • 6) Main organ functions in the screening phase meet the following criteria: Criteria for blood routine examination (no growth factor used or no blood transfusion conducted within 7 days): • Absolute value of neutrophil count (ANC)≥1.5×10^9/L; • Platelet (PLT)≥75×10^9/L; hemoglobin (Hb)≥90 g/L; Criteria for blood biochemical examination: • Alanine transaminase (ALT) and aspartate transferase (AST)≤1.5×ULN (for patients with tumor liver metastasis, ≤3×ULN); • Glycosylated hemoglobin (HbA1c)≤8.5%; • Lipase≤1.5×ULN; • Serum total bilirubin≤1.5×ULN; • Serum creatinine (Cr)≤1.5×ULN; • 7) Doppler ultrasound evaluation: left ventricular ejection fraction (LVEF)≥lower limit of normal (50%); • 8) Female subjects should agree to take contraceptive measures (such as intrauterine devices [IUD], contraceptives or condoms) during the study and for 6 months after the study; serum or urine pregnancy test results should be negative within 7 days before enrollment, and the subjects must not be breastfeeding; male subjects should agree to take contraceptive measures during the study and for 6 months after the study; and • 9) Voluntary participation, written informed consent and good compliance. The efficacy was evaluated according to the revised evaluation criteria of the Lugano conference, 2014 edition. Primary evaluation indexes of efficacy: objective response rate (ORR), i.e., (CR+PR cases)/total cases, including cases of complete response (CR) and partial response (PR). Secondary evaluation indexes of efficacy: progression-free survival (PFS), overall survival (OS), disease control rate (DCR) and duration of response (DOR).

[6] = 20 mg QD dose group, 20 patients
[7] = 22 lymphoma patients enrolled, 18 evaluable for efficacy
[8] = Tumor type Lymphoma, 43 patients
[9] = overall conclusion of the trial
[10] = patient R1009, DLBCL, 10 mg/qd, administration cycle C7D28
[11] = patient R1018, FL, 20 mg/bid, administration cycle C2D28
[12] = patient R2008, FL, 10 mg/bid, administration cycle C2D3

## COc1ncc(-c2ccc3ncc(OCCN(C)C)c(=O)n3c2)cc1NS(=O)(=O)c1ccc(F)cc1Cl [compound of formula I]
[1]; 20 mg orally once daily
  safety in treatment: good safety
  therapeutic effect on follicular lymphoma: good therapeutic effect
[1]; 20 patients with follicular lymphoma, 20 mg orally once daily (2 cases)
  CR: 10.0%
[1]; 20 patients with follicular lymphoma, 20 mg orally once daily (14 cases)
  ORR: 70%
[2]
  safety in treatment: good safety
  therapeutic effect on diffuse large B-cell lymphoma: good therapeutic effect
[3]; 20 mg orally once daily
  safety in treatment: good safety
  therapeutic effect on mantle cell lymphoma: good therapeutic effect
[3]; 21 patients with mantle cell lymphoma, 20 mg orally once daily (2 cases)
  CR: 9.5%
[3]; 21 patients with mantle cell lymphoma, 20 mg orally once daily (16 cases)
  ORR: 76%
[3]; of the 7 patients previously treated with a BTK inhibitor
  patients reached ORR: Five
[4]
  safety in treatment: good safety
  treatment effect on small lymphocytic lymphoma or chronic lymphocytic leukemia: good treatment effect
[5]; 10 mg/qd and higher-dose group (11/15), 22 patients enrolled
  ORR: 73%
[5]; [6]
  adverse event, a grade 3 hyperglycemia: 1 case
  overall safety and tolerance: good overall safety and tolerance
[5]; 20 mg/qd group (4/4), 22 patients enrolled
  ORR: 100%
[5]; [7]
  patients achieved CR (best efficacy): 2 patients
  patients achieved PR (best efficacy): 9 patients
[5]; 35 lymphoma patients enrolled, 31 evaluated for efficacy (22/31)
  ORR: 71%
[5]; 35 lymphoma patients enrolled, controlled and returned to baseline by withdrawal of drug or symptom-oriented treatment
  major grade 3 adverse event and dose-limiting toxicity (DLT) associated with study drugs: hyperglycemia
[5]; 50 lymphoma patients enrolled, 43 evaluated for efficacy (28/43)
  ORR: 65%
[5]; Tumor type CLL, 2 patients
  ORR, n (%): 2 (100%) n (%)
[5]; Tumor type DLBCL, 8 patients
  CR, n (%): 2 (25.0%) n (%)
  ORR, n (%): 4 (50.0%) n (%)
[5]; Tumor type FL, 20 patients
  CR, n (%): 2 (10.0%) n (%)
  ORR, n (%): 15 (75%) n (%)
[5]; [8]
  CR, n (%): 4 (9.3%) n (%)
  ORR, n (%): 28 (65%) n (%)
[5]; Tumor type MCL, 5 patients
  ORR, n (%): 5 (100%) n (%)
[5]; Tumor type NHL, 41 patients
  CR, n (%): 4 (9.8%) n (%)
  ORR, n (%): 28 (68%) n (%)
[5]; all the two follicular lymphoma patients in the 20 mg/qd group
  Best efficacy: achieved PR
[5]; all the two mantle cell lymphoma patients, relapsed or refractory after BTK inhibitor treatment
  Best efficacy: achieved PR
[5]; follicular lymphoma (FL), 10 mg/qd and higher-dose group (6/8)
  ORR: 75%
[5]; [9]
  safety: good safety
  therapeutic effect on lymphoma: good therapeutic effect
[5]; patient R1006, FL, 10 mg/qd, administration cycle C5D28
  Change in lesion: −84.0%
[5]; [10]
  Best efficacy: Small SD
  Change in lesion: −37.5%
[5]; [11]
  Best efficacy: Small SD
  Change in lesion: −33.0%
[5]; patient R2006, DLBCL, 10 mg/qd, administration cycle C3D28
  Change in lesion: −100.0%
[5]; [12]
  Best efficacy: Small SD
  Change in lesion: −42.0%
[5]; patient R2009, MCL, 10 mg/bid, administration cycle C3D28
  Change in lesion: −71.0%
[5]; patient R2011, FL, 20 mg/bid, administration cycle C1D14
  Change in lesion: −94.0%
